{"source": "BindingDB's records for doi:10.1021/jm00001a002", "about": "(National Institutes of Health, 1995)", "target": "Sigma non-opioid intracellular receptor 1 (Cavia porcellus) (UniProt Q60492)", "sequence (Q60492 whole entry, looked up)": "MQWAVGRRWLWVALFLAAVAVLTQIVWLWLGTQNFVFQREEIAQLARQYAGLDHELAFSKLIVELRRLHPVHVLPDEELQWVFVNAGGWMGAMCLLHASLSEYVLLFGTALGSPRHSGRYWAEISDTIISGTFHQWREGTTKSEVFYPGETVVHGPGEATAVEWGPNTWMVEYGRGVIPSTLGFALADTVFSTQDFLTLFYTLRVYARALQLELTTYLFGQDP", "assay": "In vitro binding affinity towards Sigma receptor type 1 was determined by measuring its ability to displace [3H](+)-pentazocine from guinea pig brain membrane", "data": [{"smiles": "CN1CCC=C(c2nsnc2SCCF)C1", "values": [{"measurement": "Ki", "result": 21.7, "unit": "nM"}]}, {"smiles": "CN1CCC=C(c2nsnc2SCCCF)C1", "values": [{"measurement": "Ki", "result": 62.1, "unit": "nM"}]}]}
